In ChEMBL document CHEMBL1134058, “Phospho-Azatyrosine, a less effective protein-tyrosine phosphatase substrate than phosphotyrosine” (Bioorg Med Chem Lett, 2001):
Numbered stars: 1 amine (or outer) side, 2 acyl side, 3 side chain; on linkers, the order of the positions; unused ones are H or OH. Square brackets hold non-standard residues; d marks the D form. Peptide text beside a SMILES is read from it. X1 = O=C([C@H](Cc1ccc(OP(=O)(O)O)cn1)N[*:1])[*:2]; pY = N[C@@H](Cc1ccc(OP(=O)(O)O)cc1)C(=O)O

Biological target: T1, Tyrosine-protein phosphatase non-receptor type 1 (Homo sapiens) (UniProt P18031)
T1 sequence (whole entry): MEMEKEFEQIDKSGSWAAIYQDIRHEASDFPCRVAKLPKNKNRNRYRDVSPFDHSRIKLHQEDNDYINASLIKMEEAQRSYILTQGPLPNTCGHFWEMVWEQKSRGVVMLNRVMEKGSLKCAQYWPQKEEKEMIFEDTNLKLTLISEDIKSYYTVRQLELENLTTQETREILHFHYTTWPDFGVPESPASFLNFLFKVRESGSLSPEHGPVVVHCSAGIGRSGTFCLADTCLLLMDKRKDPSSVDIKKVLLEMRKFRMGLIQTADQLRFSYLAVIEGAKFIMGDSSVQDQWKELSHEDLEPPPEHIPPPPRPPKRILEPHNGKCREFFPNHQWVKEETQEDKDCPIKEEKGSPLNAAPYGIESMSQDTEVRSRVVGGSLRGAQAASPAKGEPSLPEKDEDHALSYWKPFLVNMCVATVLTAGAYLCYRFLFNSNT
Experiment: Catalytic turnover rate was determined.

k cat [s⁻¹] | SMILES
68 | CC(=O)N[C@@H](CC(=O)O)C(=O)N[C@@H](C)C(=O)N[C@@H](CC(=O)O)C(=O)N[C@@H](CCC(=O)O)C(=O)N[C@@H](Cc1ccc(OP(=O)(O)O)cc1)C(=O)N[C@@H](CC(C)C)C(N)=O (Ac-DADE[pY]L-NH2)
52 | CC(=O)N[C@@H](CC(=O)O)C(=O)N[C@@H](C)C(=O)N[C@@H](CC(=O)O)C(=O)N[C@@H](CCC(=O)O)C(=O)N[C@@H](Cc1ccc(OP(=O)(O)O)cn1)C(=O)N[C@@H](CC(C)C)C(N)=O (Ac-DADE[X1]L-NH2)
